Here are results for two compounds from patent US11440940B2, “Polymyxin B component or salt thereof, and preparation and application thereof” (SPH NO.1 BIOCHEMICAL & PHARMACEUTICAL CO.,LTD., priority 2020, dated 2022).

In brackets after ≈: the same amount, converted by molar mass. Read-outs that look alike come from different tables or passages of the source. Where a SMILES comes first, the peptide text is derived from it. Bridges are numbered along the chain shown (N, C = ends). [ ]: non-standard residue; d: D form. The star is where a group is joined. aThr = C[C@H](O)[C@H](N)C(=O)O; X2 = CC[C@@H](C)CC/C=C/C(=O)*; X1 = CC[C@@H](C)CCCCC(=O)*; Dab = NCC[C@H](N)C(=O)O

As usually defined, the MIC is the smallest concentration in the dilution series that meets the test's criterion for growth inhibition. Low values mean greater potency, high ones weaker potency.

In test [1] the test system is Acinetobacter baumannii ATCC19606. The class given is cell-based. Here is the method:
Minimal inhibitory concentrations (MIC) of the polymyxin B1 (PMB1) and the 2′,3′-dehydropolymyxin B1 against Acinetobacter baumannii were determined using a microdilution broth method as instructed by Clinical & Laboratory Standards Institute (CLSI). Specifically, Acinetobacter baumannii ATCC19606 (standard strain) was inoculated into a 96-well plate at a density of […], to which a PMB1 solution (as control) or a 2′,3′-dehydropolymyxin B1 solution was added to a series of final concentrations of 0.125, 0.25, 0.5, 1, 2, 4 and 8 mg/L. The 96-well plate was incubated at 35±2° C. for 18-24 h, and then observed for the turbidity in each test well, where the lowest concentration of PMB1 or 2′,3′-dehydropolymyxin B1 under which the system in the test well became clear was considered as the corresponding MIC.

In test [2] the test system is Pseudomona aeruginosa ATCC27853. Format: cell-based. Here is the method:
Furthermore, the polymyxin B1 (PMB1) and the 2′,3′-dehydropolymyxin B1 were also determined for MIC against Pseudomona aeruginosa using the microdilution broth method as instructed by CLSI. Similarly, the Pseudomona aeruginosa ATCC27853 (standard strain) was inoculated into a 96-well plate at a density of 10^6 CFU/mL, to which a PMB1 solution (as control) or a 2′,3′-dehydropolymyxin B1 solution was added to a series of final concentrations of 0.125, 0.25, 0.5, 1, 2, 4 and 8 mg/L. The 96-well plate was incubated at […] for 18-24 h, and then observed for the turbidity in each test well, where the lowest concentration of PMB1 or 2′,3′-dehydropolymyxin B1 under which the system in the test well became clear was considered as the corresponding MIC.

Regarding `CC[C@@H](C)CC/C=C/C(=O)N[C@@H](CCN)C(=O)N[C@H](C(=O)N[C@@H](CCN)C(=O)N[C@H]1CCNC(=O)[C@H]([C@H](C)O)NC(=O)[C@H](CCN)NC(=O)[C@H](CCN)NC(=O)[C@H](CC(C)C)NC(=O)[C@@H](Cc2ccccc2)NC(=O)[C@H](CCN)NC1=O)[C@H](C)O` [2′,3′-dehydropolymyxin B1] (X2-[Dab][aThr][Dab][Dab][Dab][dF]L[Dab][Dab][aThr]; lactam 4-C), the MIC in test [1] (ATCC19606) stood at 0.5 µg/mL (≈ 0.416 µM); in test [2] (ATCC27853), 1 µg/mL (≈ 0.832 µM).
For the compound `CC[C@@H](C)CCCCC(=O)N[C@@H](CCN)C(=O)N[C@H](C(=O)N[C@@H](CCN)C(=O)N[C@H]1CCNC(=O)[C@H]([C@H](C)O)NC(=O)[C@H](CCN)NC(=O)[C@H](CCN)NC(=O)[C@H](CC(C)C)NC(=O)[C@@H](Cc2ccccc2)NC(=O)[C@H](CCN)NC1=O)[C@H](C)O` [Polymyxin B1, polymyxin B1] (X1-[Dab][aThr][Dab][Dab][Dab][dF]L[Dab][Dab][aThr]; lactam 4-C), the MIC in test [1] (Acinetobacter baumannii ATCC19606 (standard strain), 96-well plate, 35±2° C., 18-24 h, turbidity) is 1 µg/mL (≈ 0.831 µM); in test [2] (Pseudomona aeruginosa ATCC27853 (standard strain), 96-well plate, 18-24 h, turbidity), 1 µg/mL (≈ 0.831 µM).
